Assay results as given in patent US11566030B2, “Substituted 2,6-dihydropyrrolo[3,4-c]pyrazoles as pyruvate kinase activators” (priority 2021, dated 2023).
Where two headings read alike, the source gives them in different places.

Target: T1, Human pyruvate kinase R (PKR) (Homo sapiens, UniProt P30613)
T1 construct: Human pyruvate kinase R (PKR), residues 14-574; 6xHis-8xArg-SUMO (N, cleaved yes); host or cells: E. coli
Assay: Biochemical assay for activation of pyruvate kinase R (Kinase-Glo luminescence, ATP generation)
Settings: for Emax: read-out: PKR % activation, maximal activation level achieved with each compound relative to the activation level achieved by AG-348 @ 10 μM
Description: Human pyruvate kinase R (PKR), residues 14-574, and human pyruvate kinase M2, residues 1-531, were cloned into expression plasmids and obtained from ATUM Bio (Newark, Calif.). Proteins were translated as fusions with 6×-His,8×-Arg, and SUMO at the N-terminus. A third construct of human PKR was truncated, residues 50-574, and similarly cloned for use in crystallography experiments. All proteins were cloned, expressed in E. coli, and purified using similar protocols. Cells were grown at 30° C. in Luria-Bertani broth supplemented with 0.4% glucose to OD600=0.8 and induced with 0.4 mM IPTG at 16° C. for 18 hours. Cells were harvested by centrifugation, resuspended in 50 mM potassium phosphate pH 8.0, 500 mM NaCl, 25 mM imidazole pH 8.0, and 3 mM β-mercaptoethanol. Cells were lysed using a LM20 microfluidizer from Microfluidics (Westwood, Mass.). The crude lysate was immediately supplemented with 0.2 mM phenylmethylsulfonyl fluoride (PMSF) and centrifuged at 20,000 g for 20 minutes. The soluble fraction was subsequently incubated with 2 mL Ni-NTA (GE Healthcare) per 1,000 ODs for 1 hour at 4° C. Following incubation with the Ni-NTA resin, lysate was removed by pelleting resin at 2,500 g for 3 minutes and washed 3 times with 9 bed volumes of 50 mM potassium phosphate pH 8.0, 500 mM NaCl, 25 mM imidazole, and 3 mM β-mercaptoethanol. Following the batch wash Ni-NTA resin was loaded onto a gravity column and His-tagged protein was eluted with 6 bed volumes of 10 mM Tris/HCl pH 8.0, 200 mM NaCl, 500 mM imidazole, and 3 mM β-mercaptoethanol. Eluted protein was dialyzed overnight against 10 mM Tris/HCl pH 8.0, 200 mM NaCl, and 1 mM DTT and the 6×-His-8×-Arg-SUMO-tag was cleaved using a 20:1 molar ratio of protein: 3C protease. The protein was purified by anion exchange chromatography on a HiTrapQ or MonoQ 10/100 GL column (GE Healthcare) via a linear NaCl gradient and twice by size exclusion chromatography using a Superdex S200 26/60 column (GE Healthcare) run in 10 mM Tris/HCl pH 8.0, 200 mM NaCl, 10 mM MgCl2, 1 mM DTT. Proteins were concentrated to −12 mg/mL for crystallization and flash frozen for storage.
Biochemical assay for Activation of Pyruvate Kinase R
Activation of pyruvate kinase R (PKR) and pyruvate kinase M2 (PKM2) were measured using a luminescence based measurement of ATP generation and the Kinase-Glo luminescent kinase reagent kit.

[1] = PKR AC50 (nM), 0.1 nM PKR, 0.3 mM ADP, 0.1 mM PEP, 1% DMSO

T1 sequence (P30613 14-574): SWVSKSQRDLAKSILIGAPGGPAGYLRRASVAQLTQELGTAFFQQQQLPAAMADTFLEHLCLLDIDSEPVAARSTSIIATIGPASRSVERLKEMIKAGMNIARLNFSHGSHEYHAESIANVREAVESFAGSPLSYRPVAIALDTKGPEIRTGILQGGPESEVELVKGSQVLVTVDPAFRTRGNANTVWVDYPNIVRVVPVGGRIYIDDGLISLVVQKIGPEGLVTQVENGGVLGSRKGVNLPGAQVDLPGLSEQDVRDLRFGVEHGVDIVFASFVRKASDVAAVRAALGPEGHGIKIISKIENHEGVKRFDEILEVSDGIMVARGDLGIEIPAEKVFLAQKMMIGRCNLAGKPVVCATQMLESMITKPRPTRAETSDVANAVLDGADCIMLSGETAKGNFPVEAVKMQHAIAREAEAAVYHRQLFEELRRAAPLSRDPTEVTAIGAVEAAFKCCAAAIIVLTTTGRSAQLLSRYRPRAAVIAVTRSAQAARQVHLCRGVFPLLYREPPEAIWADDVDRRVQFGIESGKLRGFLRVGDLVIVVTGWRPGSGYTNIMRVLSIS

| Compound | Emax [%] | AC50 [1] [nM] | AC50 [nM] | PKR % activation (maximal activation level achieved with each compound relative to the activation level achieved by AG-348 @ 10 μM) [%] |
| --- | --- | --- | --- | --- |
| O=C([C@H](CO)c1ccccc1)N1Cc2cn(S(=O)(=O)c3ccc(-c4ccccc4)s3)nc2C1 [Compound 18, (2S)-3-hydroxy-2-phenyl-1-{2-[(5-phenylthiophen-2-yl)sulfonyl]-2H,4H,5H,6H-pyrrolo[3,4-c]pyrazol-5-yl}propan-1-one] | 70 | 72 | – | – |
| Cc1c(S(=O)(=O)n2cc3c(n2)CN(C(=O)[C@H](CO)c2ccccc2F)C3)cnn1CC(F)F [Compound 14, (2S)-1-(2-{[1-(2,2-difluoroethyl)-5-methyl-1H-pyrazol-4-yl]sulfonyl}-2H,4H,5H,6H-pyrrolo[3,4-c]pyrazol-5-yl)-2-(2-fluorophenyl)-3-hydroxypropan-1-one] | 129 | – | 7.1 | – |
| Cc1nc(OCC(F)(F)F)sc1S(=O)(=O)n1cc2c(n1)CN(C(=O)[C@H](CO)c1ccccc1)C2 [Compound 22, (2S)-3-hydroxy-1-(2-{[4-methyl-2-(2,2,2-trifluoroethoxy)-1,3-thiazol-5-yl]sulfonyl}-2H,4H,5H,6H-pyrrolo[3,4-c]pyrazol-5-yl)-2-phenylpropan-1-one] | 0 | 1000 | – | – |
| Cc1c(S(=O)(=O)n2cc3c(n2)CN(C(=O)[C@H](CO)c2ccccc2)C3)cnn1CC(F)F [Compound 11, (2S)-1-(2-{[1-(2,2-difluoroethyl)-5-methyl-1H-pyrazol-4-yl]sulfonyl}-2H,4H,5H,6H-pyrrolo[3,4-c]pyrazol-5-yl)-3-hydroxy-2-phenylpropan-1-one] | 92 | – | 5.7 | – |
| C[C@](CO)(C(=O)N1Cc2cn(S(=O)(=O)c3cnn(CC(F)F)c3)nc2C1)c1ccccn1 (single isomer, unassigned) [Compound 10] | 112 | 116 | – | – |
| O=C([C@H](O)c1ccccc1F)N1Cc2cn(S(=O)(=O)c3cnn(CC(F)(F)F)c3)nc2C1 (single isomer, unassigned) [Compound 40] | 53 | 81 | – | – |
| O=C([C@@H](CO)c1ccccc1Cl)N1Cc2cn(S(=O)(=O)c3cnn(CC(F)(F)F)c3)nc2C1 [Compound 48, (2R)-2-(2-chlorophenyl)-3-hydroxy-1-[2-[1-(2,2,2-trifluoroethyl)pyrazol-4-ylsulfonyl]-4H,6H-pyrrolo[3,4-c]pyrazol-5-yl]propan-1-one] | 111 | 580 | – | – |
| O=C([C@@H](O)c1ccccc1)N1Cc2cn(S(=O)(=O)c3cnn(CC(F)F)c3)nc2C1 [Compound 34, (2S)-1-[2-[1-(2,2-difluoroethyl)pyrazol-4-ylsulfonyl]-4H,6H-pyrrolo[3,4-c]pyrazol-5-yl]-2-hydroxy-2-phenylethanone] | 102 | – | 930 | – |
| O=C([C@H](O)c1ccccc1F)N1Cc2cn(S(=O)(=O)c3cnn(CC(F)(F)F)c3)nc2C1 (single isomer, unassigned) [Compound 41] | – | 3400 | – | 40 |
| O=C([C@H](CO)c1ncccc1F)N1Cc2cn(S(=O)(=O)c3cnn(CC(F)F)c3)nc2C1 (single isomer, unassigned) [Compound 42] | 102 | 2100 | – | – |

Next, values leading:

| Emax [%] | AC50 [1] [nM] | AC50 [nM] | PKR % activation (maximal activation level achieved with each compound relative to the activation level achieved by AG-348 @ 10 μM) [%] | Compound |
| --- | --- | --- | --- | --- |
| 59 | – | – | – | Cc1nn(CC(F)F)c(C)c1S(=O)(=O)n1cc2c(n1)CN(C(=O)[C@H](CO)c1ccccc1)C2 [Compound 87, (2S)-1-[2-[1-(2,2-difluoroethyl)-3,5-dimethylpyrazol-4-ylsulfonyl]-4H,6H-pyrrolo[3,4-c]pyrazol-5-yl]-3-hydroxy-2-phenylpropan-1-one] |
| 19 | 8.3 | – | – | Cc1cn(CC(F)F)nc1S(=O)(=O)n1cc2c(n1)CN(C(=O)C1(c3ncccc3Cl)COC1)C2 [Compound 82, 3-chloro-2-(3-{2-[1-(2,2-difluoroethyl)-4-methylpyrazol-3-ylsulfonyl]-4H,6H-pyrrolo[3,4-c]pyrazole-5-carbonyl}oxetan-3-yl)pyridine] |
| 164 | 91 | – | – | O=C([C@@H](CO)c1ccccc1Cl)N1Cc2cn(S(=O)(=O)c3cnn(CCF)c3)nc2C1 [Compound 91, (2R)-2-(2-chlorophenyl)-1-{2-[1-(2-fluoroethyl)pyrazol-4-ylsulfonyl]-4H,6H-pyrrolo[3,4-c]pyrazol-5-yl}-3-hydroxypropan-1-one] |
| 66 | 17 | – | – | O=C([C@H](CO)c1cccc(F)c1F)N1Cc2cn(S(=O)(=O)c3cnn(CC(F)(F)F)c3)nc2C1 [Compound 73, (2S)-2-(2,3-difluorophenyl)-3-hydroxy-1-{2-[1-(2,2,2-trifluoroethyl)pyrazol-4-ylsulfonyl]-4H,6H-pyrrolo[3,4-c]pyrazol-5-yl}propan-1-one] |
| 105 | – | 1200 | – | Cc1c(S(=O)(=O)n2cc3c(n2)CN(C(=O)[C@@H](CO)c2ccccc2)C3)cnn1CC(F)F [Compound 89, (R)-1-(2-((1-(2,2-difluoroethyl)-5-methyl-1H-pyrazol-4-yl)sulfonyl)-2,6-dihydropyrrolo[3,4-c]pyrazol-5(4H)-yl)-3-hydroxy-2-phenylpropan-1-one] |
| 35 | 22 | – | – | O=C([C@H](CO)c1ccccc1)N1Cc2cn(S(=O)(=O)c3csc(C(F)(F)F)c3)nc2C1 [Compound 117, (2S)-3-hydroxy-2-phenyl-1-(2-{[5-(trifluoromethyl)thiophen-3-yl]sulfonyl}-2H,4H,5H,6H-pyrrolo[3,4-c]pyrazol-5-yl)propan-1-one] |
| 0 | – | – | – | COCCOc1ccccc1[C@@H](CO)C(=O)N1Cc2cn(S(=O)(=O)c3cnn(CC(F)F)c3)nc2C1 (single isomer, unassigned) [Compound 92] |
| 101 | 26 | – | – | COc1ccccc1[C@@H](CO)C(=O)N1Cc2cn(S(=O)(=O)c3cnn(CC(F)F)c3C)nc2C1 [Compound 103, (2S)-1-{2-[1-(2,2-difluoroethyl)-5-methylpyrazol-4-ylsulfonyl]-4H,6H-pyrrolo[3,4-c]pyrazol-5-yl}-3-hydroxy-2-(2-methoxyphenyl)propan-1-one] |
| 36 | 82 | – | – | Cc1cn(CC(F)(F)F)nc1S(=O)(=O)n1cc2c(n1)CN(C(=O)[C@H](CO)c1ccccc1Cl)C2 [Compound 70, (2S)-2-(2-chlorophenyl)-3-hydroxy-1-{2-[4-methyl-1-(2,2,2-trifluoroethyl)pyrazol-3-ylsulfonyl]-4H,6H-pyrrolo[3,4-c]pyrazol-5-yl}propan-1-one] |
| 85 | 50 | – | – | O=C([C@H](CO)c1ccccc1Cl)N1Cc2cn(S(=O)(=O)c3ccn(CC(F)(F)F)n3)nc2C1 [Compound 63, (2S)-2-(2-chlorophenyl)-3-hydroxy-1-[2-[1-(2,2,2-trifluoroethyl)pyrazol-3-ylsulfonyl]-4H,6H-pyrrolo[3,4-c]pyrazol-5-yl]propan-1-one] |
| 73 | – | 2500 | – | O=C([C@@H](CO)c1ccccc1)N1Cc2cn(S(=O)(=O)c3cnn(CC(F)(F)F)c3)nc2C1 [Compound 84, (2R)-3-hydroxy-2-phenyl-1-{2-[1-(2,2,2-trifluoroethyl)pyrazol-4-ylsulfonyl]-4H,6H-pyrrolo[3,4-c]pyrazol-5-yl}propan-1-one] |
| 13 | – | 160 | – | O=C([C@H](CO)c1ccccc1)N1Cc2cn(S(=O)(=O)c3c[nH]c(C(F)(F)F)c3)nc2C1 [Compound 118, (2S)-3-hydroxy-2-phenyl-1-(2-{[5-(trifluoromethyl)-1H-pyrrol-3-yl]sulfonyl}-2H,4H,5H,6H-pyrrolo[3,4-c]pyrazol-5-yl)propan-1-one] |
| 49 | 3000 | – | – | COCCn1cc(S(=O)(=O)n2cc3c(n2)CN(C(=O)[C@@H](CO)c2ccccc2F)C3)cn1 [Compound 61, (2R)-2-(2-fluorophenyl)-3-hydroxy-1-{2-[1-(2-methoxyethyl)pyrazol-4-ylsulfonyl]-4H,6H-pyrrolo[3,4-c]pyrazol-5-yl}propan-1-one] |
| 50 | 6.7 | – | – | CC(C)n1cc(S(=O)(=O)n2cc3c(n2)CN(C(=O)[C@H](CO)c2ccccc2F)C3)cn1 [Compound 57, (2S)-2-(2-fluorophenyl)-3-hydroxy-1-[2-(1-isopropylpyrazol-4-ylsulfonyl)-4H,6H-pyrrolo[3,4-c]pyrazol-5-yl]propan-1-one] |
